Like-named read-outs stand apart in the source and are kept apart here. One block for each molecule: values may come before it. Bridge positions count the residues as written; N and C are the ends. Square brackets hold non-standard residues; d marks the D form. Peptide text beside a SMILES is read from it. hPhe(3,5-F2-4-CF3) = N[C@@H](CCc1cc(F)c(C(F)(F)F)c(F)c1)C(=O)O; NEtPhe(4-Me) = CCN[C@@H](Cc1ccc(C)cc1)C(=O)O; NMeGly(cPent) = CN[C@H](C(=O)O)C1CCCC1; NMeD = CN[C@@H](CC(=O)O)C(=O)O; NMeL = CN[C@@H](CC(C)C)C(=O)O; NMeA = CN[C@@H](C)C(=O)O; Ac5c = NC1(C(=O)O)CCCC1; Aze = O=C(O)[C@@H]1CCN1; Sar = CNCC(=O)O
Columns and labels:
NCI-H358 [1] = assay: Cell growth inhibitory activity, ATP (CellTiter-Glo 2.0), isobologram (Example 2), NCI-H358; format: cell-based, Human; conditions: 144 hours
Method: (§1) Human cancer cell lines were seeded on a 384-well round bottom ultra-low attachment plate at a concentration of 750 cells per well and cultured in a 5% carbon gas incubator at 37°C. After 24 hours, CellTiter-Glo 2.0 (Promega Corporation) was added to part of the wells (3 wells), and the amount of ATP (V0) was determined using Envision plate readers (PerkinElmer Co., Ltd.). V0 was taken as the amount of ATP at time 0. DMSO alone or compound 1 and/or the compound for combined use each were added to another three wells. Compound 1 and the compound for combined use were used by serially diluting in 8 steps at a common ratio of 3 with 300 nM and 10 or 3000 nM taken as their respective highest concentrations. […] After culturing for 144 hours after addition of DMSO alone or compound 1 and/or the compound for combined use, the amount of ATP (T and V) was determined for the cells to which DMSO alone was added (DMSO-treated group) or the cells to which compound 1 and/or the compound for combined use was added (compound 1 and/or compound for combined use-treated group). […] The growth inhibition rate (Growth Inhibition %: GI%) was calculated using the following formulas. […] (1−(T−V0)/V0) × 100 [formula] (when T < V0) (1−(T−V0)/(V−V0)) × 100 [formula] […]

[2] = test system: lung cancer line NCI-H1373 (KRAS-G12C); assay: In vivo antitumor activity, NCI-H1373 xenograft model (Example 11); design: species or system Nude mice; conditions: compound 1 5 mg/kg orally once a day, TNO155 5 mg/kg orally twice a day, 35 days, Figure 19
From the text: A xenograft model to which lung cancer line NCI-H1373 (KRAS-G12C) was transplanted was used to evaluate in vivo antitumor activity due to combined use of compound 1 and TNO155. Nude mice were subcutaneously transplanted with 5 × 10^6 cells per mouse, and when the tumor volume reached 200 to 300 mm^3, the nude mice were randomized and administration of compound 1 and/or the compound for combined use was started (n = 8). Compound 1 was orally administered once a day and TNO155 was orally administered twice a day for an administration period of 35 days. The doses of the agents were 5 mg/kg for compound 1 and 5 mg/kg for TNO155. Compound 1 was dissolved in 10% DMSO/5% Cremphor EL/85% Distilled water and TNO155 was dissolved in 0.5% Tween 80/0.5% methylcellulose/99% distilled water, and administered. From the tumor volume data on the last measurement day, the tumor growth inhibition rate (Tumor Growth Inhibition %: TGI%) was calculated using the following formulas. […] Tumor growth inhibition rate (TGI%) = (1−TV/CV) × 100 [formula] Tumor volume (mm^3) = 1/2 × major axis (mm) × minor axis (mm) × minor axis (mm) [formula] [formula] • TV: Mean of the amount of change in tumor volume in the compound 1 monotherapy group, the TNO155 monotherapy group, or the combined use group • CV: Mean of the amount of change in tumor volume in the vehicle group

NCI-H441 = assay: Cell growth inhibitory activity, ATP (CellTiter-Glo 2.0), isobologram (Example 2), NCI-H441; format: cell-based, Human; conditions: set GI% 100%, 144 hours, test with RMC-4550
Method: as §1

NCI-H358 [3] = conditions: read-out: set GI concentration (concentration as a single drug giving GI 50), set GI% 50%, 144 hours, test with trametinib
Method: as §1

[4] = test system: lung cancer line NCI-H441 (KRAS-G12C); assay: In vivo antitumor activity, NCI-H441 xenograft model (Example 12); design: species or system Nude mice; conditions: compound 1 3 mg/kg or 5 mg/kg, compound 2 0.25 mg/kg, orally once a day, 14 days, Figure 20
Method: (§2) A xenograft model to which lung cancer line NCI-H441 (KRAS-G12C) or NCI-H1373 (KRAS-G12C) was transplanted was used to evaluate in vivo antitumor activity due to combined use of compound 1 and compound 2. Nude mice were subcutaneously transplanted with 5 × 10^6 cells per mouse, and when the tumor volume reached 200 to 300 mm^3, randomization was performed and administration of compound 1 and/or the compound for combined use was started (n = 5). Compound 1 and compound 2 were orally administered once a day for an administration period of 14 days. The doses of the agents were 3 mg/kg or 5 mg/kg for compound 1 and 0.25 mg/kg for compound 2. Compound 1 was dissolved in 10% DMSO/5% Cremphor EL/85% Distilled water and compound 2 was dissolved in 10% DMSO/10% Cremphor EL/15% PEG400/15% HPBCD/50% distilled water, and administered. From the tumor volume data on the last measurement day, the tumor growth inhibition rate (Tumor Growth Inhibition %: TGI%) was calculated using the following formulas. […] Tumor growth inhibition rate (TGI%) = (1−TV/CV) × 100 [formula] Tumor volume (mm^3) = 1/2 × major axis (mm) × minor axis (mm) × minor axis (mm) [formula] [formula] • TV: Mean of the amount of change in tumor volume in the compound 1 monotherapy group, the compound 2 monotherapy group, or the combined use group • CV: Mean of the amount of change in tumor volume in the vehicle group

NCI-H1373 (KRAS-G12C) = assay: In vivo antitumor activity, NCI-H1373 xenograft model (Example 12); design: species or system Nude mice; conditions: compound 1 3 mg/kg or 5 mg/kg, compound 2 0.25 mg/kg, orally once a day, 14 days, Figure 21
Method: as §2

GI50 (NCI-H358 [1]; Homo sapiens, set GI% 50%, single drug, test with trametinib, read-out: set GI concentration (concentration as a single drug giving GI 50)): 0.35 nM
SMILES: CC(=O)Nc1cccc(-n2c(=O)n(C3CC3)c(=O)c3c(Nc4ccc(I)cc4F)n(C)c(=O)c(C)c32)c1 [trametinib, N-[3-[3-cyclopropyl-5-(2-fluoro-4-iodo-phenylamino)-6,8-dimethyl-2,4,7-trioxo-3,4,6,7-tetrahydro-2H-pyrido[4,3-d]pyrimidine-1-yl]phenyl]acetamide]

SMILES: C[C@@H]1OCC2(CCN(c3cnc(Sc4ccnc(N)c4Cl)c(N)n3)CC2)[C@@H]1N [TNO155, (3S,4S)-8-(6-amino-5-((2-amino-3-chloropyridine-4-yl)thio)pyrazine-2-yl)-3-methyl-2-oxa-8-azaspiro[4.5]decane-4-amine]
tumor volume, compared with vehicle group [2]: increase in tumor volume suppressed

SMILES: Cc1nc(N2CCC3(CC2)CO[C@@H](C)[C@H]3N)c(CO)nc1-c1cccc(Cl)c1Cl [RMC-4550, 3-[(3S,4S)-4-amino-3-methyl-2-oxa-8-azaspiro[4.5]deca-8-yl]-6-(2,3-dichlorophenyl)-5-methyl-2-pyrazinemethanol]
set GI concentration (concentration as a single drug giving GI 100) (NCI-H441): 0.35 µM | set GI concentration (concentration as a single drug giving GI 155) (NCI-H358 [1]; set GI% 155%, test with RMC-4550): 0.55 µM

SMILES: CC[C@H](C)[C@@H]1NC(=O)[C@H](CC(C)C)N(C)C(=O)C[C@@H](C(=O)N(C)C)N(C)C(=O)[C@H](C2CCCC2)N(C)C(=O)C2(CCCC2)NC(=O)[C@@H]2CCCN2C(=O)[C@H](CCc2cc(F)c(C(F)(F)F)c(F)c2)NC(=O)CN(C)C(=O)[C@H](Cc2ccc(C)cc2)N(CC)C(=O)[C@@H]2CCN2C(=O)[C@H](C)N(C)C1=O [compound 1, (5S,8S,11S,15S,18S,23aS,29S,35S,37aS)-8-((S)-sec-butyl)-18-cyclopentyl-29-(3,5-difluoro-4-(trifluoromethyl)phenethyl)-36-ethyl-11-isobutyl-N,N,5,6,12,16,19,33-octamethyl-35-(4-methylbenzyl)-4,7,10,13,17,20,23,28,31,34,37-undecaoxotetratriacontahydro-2H,4H-spiro[azeto[2,1-u]pyrrolo[2,1-i][1,4,7,10,13,16,19,22,25,28,31]undecaazacyclotetratriacontyne-21,1'-cyclopentane]-15-carboxamide] ([NMeL]I[NMeA][Aze][NEtPhe(4-Me)][Sar][hPhe(3,5-F2-4-CF3)]P[Ac5c][NMeGly(cPent)][NMeD]-NMe2; lactam N-11)
GI50 (NCI-H358 [3]): 4.6 nM

SMILES: CNS(=O)(=O)Nc1nccc(Cc2cc(C(N)=O)c(Nc3ccc(C4CC4)cc3F)c(F)c2F)c1F [compound 2, 2-(4-cyclopropyl-2-fluoro-anilino)-3,4-difluoro-5-[[3-fluoro-2-(methylsulfamoylamino)-4-pyridyl]methyl]benzamide]
tumor volume, compared with vehicle group [4]: increase in tumor volume suppressed | tumor volume, compared with vehicle group (NCI-H1373 (KRAS-G12C)): increase in tumor volume suppressed

From patent EP4467154A1, “MEDICINE FOR TREATING OR PREVENTING CANCER” (CHUGAI SEIYAKU KABUSHIKI KAISHA, priority 2022, dated 2023)
